“Also recorded” adds a separate entry of the source.
How the values were obtained:
[1] = system: human colorectal-cancer cells SW-480; assay: MTT ex vivo survival assay, SW-480; assay type: cell-based; details: SW-480 cell line; for half-maximal inhibitory concentration (IC50): isolated agents, stated in words only
Description: (§1) The Antroquinonol B (AnQB) and Zhankuic acid D (ZhAD) separately isolated from the Extraction A of Example 1 were added into the culture media of human colorectal-cancer cells, HT-29 or SW-480, to test for tumor cell survival by using anti-cancer drug screen model. This survival assay was carried out with the widely known MTT (3-[4,5-dimethylthiazol-2-yl]2,5-diphenyltetrazolium bromide) assay.
(§2) HT-29 cell line (purchased from ATCC) is a human colorectal adenocarcinoma cell line with epithelial morphology. These cells are sensitive to the chemotherapeutic drugs 5-fluorouracil and oxaliplatin, which are standard treatment options for colorectal cancer. In addition to being a xenograft tumor model for colorectal cancer, the HT-29 cell line is also used as an in-vitro model to study survival assay. And the other one, SW-480 is Dukes' type B, colorectal adenocarcinoma which is a difficult tumor with a low survival rate.
(§3) The human colorectal-cancer cells, HT-29 and SW-480 were cultivated in media containing fetal calf serum for 18 hours. The proliferated cells were washed once with PBS, then treated with 1× trypsin-EDTA and centrifuged at 1200 rpm for 45 minutes. The supernatant was discarded and the cell pellet was re-suspended in […] of fresh culture medium by gently shaking. The cells were placed in a 96-well plate.
(§4) Subsequently, the plates were read on an ELISA reader to determine the survival rates. The half maximal inhibitory concentration (IC50) values were calculated and results of ex vivo survival assay were thus obtained.
(§5) By using the same manner as the method described above, respectively human colorectal cancer cell line HT-29 and Sw-480 was cultured. After then, the pharmaceutical compositions A˜F of the present invention was applied separately, and then MTT assay for each sample was measured to assess the inhibition effectiveness of various cancer cell activity while using pharmaceutical compositions A˜F of the present invention.

[2] = system: human colorectal-cancer cells HT-29; assay: MTT ex vivo survival assay, HT-29; assay type: cell-based; details: HT-29 cell line; for half-maximal inhibitory concentration (IC50): isolated agents, stated in words only
Description: as §1, §2, §3, §4, §5

Row | SMILES | tumor cell survival rate / growth inhibition (MTT assay) [1] | half-maximal inhibitory concentration (IC50) [1] | tumor cell survival rate / growth inhibition (MTT assay) [2] | half-maximal inhibitory concentration (IC50) [2]
1 | C=C(CC[C@@H](C(=O)O)[C@H]1CC[C@@]2(C)C3=CC[C@H]4C(C)(C)[C@@H](O)CC[C@]4(C)C3=CC[C@]12C)C(C)C | can inhibit the growth of colorectal cancer cell; also recorded: can decrease the survival rates | relatively low | can inhibit the growth of colorectal cancer cell; also recorded: can decrease the survival rates | relatively low
2 | COC1=C(OC)[C@H](O)[C@H](C/C=C(\C)CC/C=C(/C)C/C=C/C(C)(C)O)[C@@H](C)C1=O [Antroquinonol B] | can inhibit the growth of colorectal cancer cell; also recorded: can decrease the survival rates | relatively low | can inhibit the growth of colorectal cancer cell; also recorded: can decrease the survival rates | relatively low

From patent US20170189417A1, “PHARMACEUTICAL COMPOSITION FOR TREATING COLORECTAL CANCER” (MA SHEN KAI RUEI CO., LTD., priority 2015, published 2017)
